Assay results reported in ChEMBL document CHEMBL5257037, “Side Chain Cyclized Aromatic Amino Acids: Great Tools as Local Constraints in Peptide and Peptidomimetic Design” (J Med Chem, 2016).
*1 amine or outer side, *2 acyl side, *3 side chain or, on linkers, in order; H or OH if unused. Where a SMILES comes first, the peptide text is derived from it. [ ]: non-standard residue; d: D form. Gly(9-fluorenyl) = N[C@H](C(=O)O)C1c2ccccc2-c2ccccc21; X1 = O=C([C@@H](N[*:1])[C@H]1CCc2ccccc21)[*:2]; Tic = O=C(O)[C@@H]1Cc2ccccc2CN1

Columns and labels:
[1] = biological target: T1, Angiotensin-converting enzyme (Homo sapiens, UniProt P12821); experiment: Inhibition of angiotensin-converting enzyme (unknown origin)
[2] = Inhibition of farnesyltransferase (unknown origin); set-up: species or system Homo sapiens
B2 bradykinin receptor [3] = biological target: T2, B2 bradykinin receptor (Homo sapiens, UniProt P30411); experiment: Binding affinity to B2 bradykinin receptor (unknown origin)
T2 sequence (P30411 whole entry): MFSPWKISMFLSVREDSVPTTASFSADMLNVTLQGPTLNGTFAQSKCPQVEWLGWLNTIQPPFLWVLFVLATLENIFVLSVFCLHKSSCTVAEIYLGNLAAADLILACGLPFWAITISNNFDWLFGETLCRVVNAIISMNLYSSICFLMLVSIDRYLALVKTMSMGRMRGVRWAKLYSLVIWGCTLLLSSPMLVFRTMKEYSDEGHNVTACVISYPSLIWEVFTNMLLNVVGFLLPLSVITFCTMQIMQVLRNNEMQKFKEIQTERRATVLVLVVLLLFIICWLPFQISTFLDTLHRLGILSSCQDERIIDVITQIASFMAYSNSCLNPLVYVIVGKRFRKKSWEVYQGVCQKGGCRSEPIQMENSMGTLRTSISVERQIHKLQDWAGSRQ

B2 bradykinin receptor [4] = biological target: T2, B2 bradykinin receptor; experiment: Antagonist potency at B2 bradykinin receptor (unknown origin); conditions: read-out: pA2 (converted)
[5] = biological target: T1, Angiotensin-converting enzyme; experiment: Binding affinity to angiotensin-converting enzyme (unknown origin) assessed as inhibition constant
Neprilysin = Neprilysin (Homo sapiens, UniProt P08473); experiment: Binding affinity to neutral endopeptidase (unknown origin) assessed as inhibition constant
Substance-P receptor = Substance-P receptor (Rattus norvegicus, UniProt P14600); experiment: Inhibition of [125I]BHSP binding to neurokinin receptor 1 in rat brain synaptosomes; assay type: subcellular, Synaptosome

CCOC(=O)[C@H](CCc1ccccc1)N[C@@H](C)C(=O)N1[C@H](C(=O)O)C[C@@H]2CCC[C@@H]21
IC50 [1]: 4.2 nM

CSCC[C@H](NC(=O)[C@@H]1Cc2ccccc2CN1C(=O)[C@@H](NC[C@@H](N)CS)C(C)C)C(=O)O
IC50 [2]: 0.6 nM

CSCC[C@H](NC(=O)[C@H]1Cc2ccccc2CN1C(=O)[C@@H]1CCCN1C(=O)[C@H](CS)NC(=O)[C@@H](N)CCCCN)C(=O)O
IC50 [2]: 100000 nM

N=C(N)NCCC[C@@H](N)C(=O)N[C@@H](CCCNC(=N)N)C(=O)N1CCC[C@H]1C(=O)N1C[C@H](O)C[C@H]1C(=O)NCC(=O)N[C@@H](Cc1cccs1)C(=O)N[C@@H](CO)C(=O)N[C@@H]1Cc2ccccc2CN(CC(=O)N[C@@H](CCCNC(=N)N)C(=O)O)C1=O
Ki (B2 bradykinin receptor [3]; read-out: pKi (converted)): 316 nM | Kb (B2 bradykinin receptor [4]): 2510 nM

CC(C)C[C@@H](C(=O)O)N1CCO[C@@H](c2ccccc2)[C@H](NC(=O)[C@@H](S)Cc2ccccc2)C1=O
Ki [5]: 50000 nM | Ki (Neprilysin): 330 nM

N=C(N)NCCC[C@@H](N)C(=O)N[C@@H](CCCNC(=N)N)C(=O)N1CCC[C@H]1C(=O)N1C[C@H](O)C[C@H]1C(=O)NCC(=O)N[C@@H](Cc1cccs1)C(=O)N[C@@H](CO)C(=O)N1CCC[C@]12Cc1ccccc1CN(CC(=O)N[C@@H](CCCNC(=N)N)C(=O)O)C2=O
Ki (B2 bradykinin receptor [3]; read-out: pKi (converted)): 25.1 nM | Kb (B2 bradykinin receptor [4]): 3160 nM

C[C@H](N[C@@H](CCc1ccccc1)C(=O)O)C(=O)N1Cc2ccccc2[C@H]1C(=O)O
IC50 [1]: 44 nM

N=C(N)NCCC[C@@H](N)C(=O)N[C@@H](CCCNC(=N)N)C(=O)N1CCC[C@H]1C(=O)N1C[C@H](O)C[C@H]1C(=O)NCC(=O)N[C@@H](Cc1cccs1)C(=O)N[C@@H](CO)C(=O)N1CCC[C@@]12Cc1ccccc1CN(CC(=O)N[C@@H](CCCNC(=N)N)C(=O)O)C2=O
Ki (B2 bradykinin receptor [3]; read-out: pKi (converted)): 3.16 nM | Kb (B2 bradykinin receptor [4]): 2000 nM

CSCC[C@H](NC(=O)[C@@H]1Cc2ccccc2CN1C[C@@H](NC(=O)[C@@H](N)CS)C(C)C)C(=O)O
IC50 [2]: 0.37 nM

N=C(N)NCCC[C@@H](N)C(=O)N[C@@H](CCCNC(=N)N)C(=O)N1CCC[C@H]1C(=O)N1C[C@H](O)C[C@H]1C(=O)NCC(=O)N[C@@H](Cc1cccs1)C(=O)N[C@@H](CO)C(=O)N1Cc2ccccc2C[C@@H]1C(=O)N1Cc2ccccc2C[C@@H]1C(=O)N[C@@H](CCCNC(=N)N)C(=O)O
Ki (B2 bradykinin receptor [3]; read-out: Ki): 571 nM | Kb (B2 bradykinin receptor [4]): 2510 nM

CC(C)C[C@@H](C(=O)O)N1Cc2ccccc2C[C@H](NC(=O)[C@@H](S)Cc2ccccc2)C1=O
Ki (Neprilysin): 0.4 nM

N=C(N)NCCC[C@@H](N)C(=O)N[C@@H](CCCNC(=N)N)C(=O)N1CCC[C@H]1C(=O)N1C[C@H](O)C[C@H]1C(=O)NCC(=O)N[C@@H](Cc1cccs1)C(=O)N[C@@H](CO)C(=O)N[C@H]1Cc2ccccc2CN(CC(=O)N[C@@H](CCCNC(=N)N)C(=O)O)C1=O
Ki (B2 bradykinin receptor [3]; read-out: pKi (converted)): 200 nM

O=C(O)[C@H](CCc1ccccc1)N[C@H]1Cc2ccccc2[C@H]2CCC[C@@H](C(=O)O)N2C1=O
Ki [5]: 0.004 nM | Ki (Neprilysin): > 10 nM

N=C(N)NCCC[C@@H](N)C(=O)N[C@@H](CCCNC(=N)N)C(=O)N1CCC[C@H]1C(=O)N1C[C@H](O)C[C@H]1C(=O)NCC(=O)N[C@@H](Cc1cccs1)C(=O)N[C@H]1CSSC[C@@H](C(=O)N[C@@H](CCCNC(=N)N)C(=O)O)NC(=O)[C@H](Cc2ccccc2)NC(=O)[C@H](Cc2ccccc2)NC1=O
Ki (B2 bradykinin receptor [3]; read-out: Ki): 876 nM | Kb (B2 bradykinin receptor [4]): 3980 nM

N=C(N)NCCCC(NC(=O)[C@@H]1C[C@@H]2CCC[C@@H]2N1C(=O)[C@H]1Cc2ccccc2CN1C(=O)[C@H](CO)NC(=O)[C@H](Cc1cccs1)NC(=O)CNC(=O)[C@@H]1C[C@@H](O)CN1C(=O)[C@@H]1CCCN1C(=O)[C@H](CCCNC(=N)N)NC(=O)[C@H](N)CCCNC(=N)N)C(=O)O (some centres undefined)
Ki (B2 bradykinin receptor [3]; read-out: Ki): 0.18 nM | Kb (B2 bradykinin receptor [4]): 0.398 nM

CSCC[C@H](NC(=O)[C@@H]1Cc2ccccc2CN1C(=O)[C@@H](NC(=O)[C@H](CS)NC(=O)[C@@H](N)CCCCN)C(C)C)C(=O)O
IC50 [2]: 20 nM

C[C@H](C(=O)N[C@@H](CCCNC(=N)N)C(=O)O)N1Cc2ccccc2C[C@@H](NC(=O)[C@H](CO)NC(=O)[C@H](Cc2ccccc2)NC(=O)CNC(=O)[C@@H]2CCCN2C(=O)[C@@H]2CCCN2C(=O)[C@@H](N)CCCNC(=N)N)C1=O
Ki (B2 bradykinin receptor [3]; read-out: pKi (converted)): 501 nM

O=C(O)CN1Cc2ccccc2C[C@H](N[C@@H](CCc2ccccc2)C(=O)O)C1=O
Ki [5]: 10 nM

N=C(N)NCCC[C@@H](N)C(=O)N[C@@H](CCCNC(=N)N)C(=O)N1CCC[C@H]1C(=O)N1C[C@H](O)C[C@H]1C(=O)NCC(=O)N[C@@H](Cc1cccs1)C(=O)N[C@@H](CO)C(=O)N1Cc2ccccc2C[C@@H]1C(=O)N1Cc2ccccc2C[C@H]1C(=O)N[C@@H](CCCNC(=N)N)C(=O)O
Ki (B2 bradykinin receptor [3]; read-out: Ki): 0.38 nM | Kb (B2 bradykinin receptor [4]): 0.794 nM

O=C(CS)N[C@H]1Cc2ccccc2[C@H]2CCC[C@@H](C(=O)O)N2C1=O
Ki [5]: 2 nM | Ki (Neprilysin): 5 nM

N=C(N)NCCC[C@H](NC(=O)CN1Cc2ccccc2C[C@@H](NC(=O)[C@H](CO)NC(=O)[C@H](Cc2ccccc2)NC(=O)CNC(=O)[C@@H]2CCCN2C(=O)[C@@H]2CCCN2C(=O)[C@@H](N)CCCNC(=N)N)C1=O)C(=O)O
Ki (B2 bradykinin receptor [3]; read-out: pKi (converted)): 2510 nM

CSCC[C@H](NC(=O)[C@H]1Cc2ccccc2CN1C(=O)[C@@H](NC(=O)[C@H](CS)NC(=O)[C@@H](N)CCCCN)C(C)C)C(=O)O
IC50 [2]: 100000 nM

CSCC[C@H](NC(=O)C1CC=CCN1C(=O)[C@@H](NC[C@@H](N)CS)C(C)C)C(=O)O (some centres undefined)
IC50 [2]: 270 nM

C[C@H](N[C@@H](CCc1ccccc1)C(=O)O)C(=O)N1CCc2ccccc2[C@H]1C(=O)O
IC50 [1]: 5.8 nM

CSCC[C@H](NC(=O)[C@H]1Cc2ccccc2CN1C(=O)[C@H](C(C)C)N(C)C(=O)[C@H](CS)NC(=O)[C@@H](N)CCCCN)C(=O)O
IC50 [2]: 5 nM

CSCC[C@H](NC(=O)[C@H](Cc1ccccc1)NC(=O)[C@@H](NC(=O)[C@H](CS)NC(C)=O)C(C)C)C(=O)O (Ac-CVFM-OH)
IC50 [2]: 250 nM

CSCC[C@H](NC(=O)[C@@H]1Cc2ccccc2CN1C(=O)[C@@H](NC(=O)[C@H](CS)NC(C)=O)C(C)C)C(=O)O (Ac-CV[Tic]M-OH)
IC50 [2]: 11 nM

CSCC[C@H](NC(=O)[C@@H]1Cc2ccccc2CN1C(=O)[C@@H](NC(=O)[C@@H](N)CS)C(C)C)C(=O)O (H-CV[Tic]M-OH)
IC50 [2]: 1 nM

CC[C@H](C)[C@H](NC(=O)CNC(=O)[C@@H](NC(=O)[C@H](Cc1ccccc1)NC(=O)[C@H](CCC(N)=O)NC(=O)[C@H](CCC(=O)O)NC(=O)[C@H](CCCCN)NC(=O)[C@@H]1CCCN1C(=O)[C@@H](N)CCCNC(=N)N)C1c2ccccc2-c2ccccc21)C(=O)N[C@@H](CCSC)C(=O)O (H-RPKEQF[Gly(9-fluorenyl)]GIM-OH)
IC50 (Substance-P receptor): 3 nM

CC[C@H](C)[C@H](NC(=O)CNC(=O)[C@@H]1Cc2ccccc2CN1C(=O)[C@H](Cc1ccccc1)NC(=O)[C@H](CCC(N)=O)NC(=O)[C@H](CCC(=O)O)NC(=O)[C@H](CCCCN)NC(=O)[C@@H]1CCCN1C(=O)[C@@H](N)CCCNC(=N)N)C(=O)N[C@@H](CCSC)C(=O)O (H-RPKEQF[Tic]GIM-OH)
IC50 (Substance-P receptor): 1200 nM

CC[C@H](C)[C@H](NC(=O)CNC(=O)[C@H](Cc1ccccc1)NC(=O)[C@@H]1Cc2ccccc2CN1C(=O)[C@H](CCC(N)=O)NC(=O)[C@H](CCC(=O)O)NC(=O)[C@H](CCCCN)NC(=O)[C@@H]1CCCN1C(=O)[C@@H](N)CCCNC(=N)N)C(=O)N[C@@H](CCSC)C(=O)O (H-RPKEQ[Tic]FGIM-OH)
IC50 (Substance-P receptor): 2400 nM

CC[C@H](C)[C@H](NC(=O)CNC(=O)[C@H](Cc1ccccc1)NC(=O)[C@@H](NC(=O)[C@H](CCC(N)=O)NC(=O)[C@H](CCC(=O)O)NC(=O)[C@H](CCCCN)NC(=O)[C@@H]1CCCN1C(=O)[C@@H](N)CCCNC(=N)N)[C@H]1CCc2ccccc21)C(=O)N[C@@H](CCSC)C(=O)O (H-RPKEQ[X1]FGIM-OH)
IC50 (Substance-P receptor): 3 nM

N=C(N)NCCC[C@H](NC(=O)CN1Cc2ccccc2CC(NC(=O)[C@H](CO)NC(=O)[C@H](Cc2ccccc2)NC(=O)CNC(=O)[C@@H]2CCCN2C(=O)[C@@H]2CCCN2C(=O)[C@@H](N)CCCNC(=N)N)C1=O)C(=O)O (mixture of isomers)
Ki (B2 bradykinin receptor [3]; read-out: pKi (converted)): 794 nM

N=C(N)NCCCC(NC(=O)CN1CCCCC2(CCCN2C(=O)[C@H](CO)NC(=O)[C@H](Cc2ccccc2)NC(=O)CNC(=O)[C@@H]2CCCN2C(=O)[C@@H]2CCCN2C(=O)[C@@H](N)CCCNC(=N)N)C1=O)C(=O)O (mixture of isomers; 67)
Ki (B2 bradykinin receptor [3]; read-out: pKi (converted)): 1260 nM

N=C(N)NCCCC(NC(=O)CN1CCCCC2(CCCN2C(=O)[C@H](CO)NC(=O)[C@H](Cc2ccccc2)NC(=O)CNC(=O)[C@@H]2CCCN2C(=O)[C@@H]2CCCN2C(=O)[C@@H](N)CCCNC(=N)N)C1=O)C(=O)O (mixture of isomers; 68)
Ki (B2 bradykinin receptor [3]; read-out: pKi (converted)): 251 nM

O=C(O)CN1C(=O)[C@@H](N[C@@H](CCc2ccccc2)C(=O)O)CCc2ccccc21 [BENAZEPRILAT]
IC50 [1]: 1.7 nM

CCC[C@H](N[C@@H](C)C(=O)N1[C@H](C(=O)O)C[C@@H]2CCCC[C@@H]21)C(=O)OCC [PERINDOPRIL]
IC50 [1]: 3.6 nM

H-KCVFM-OH
IC50 [2]: 1000 nM

H-RPKEQFFGIM-OH
IC50 (Substance-P receptor): 0.64 nM
